In patent US9713615B2, “Tetrahydroisoquinolin-2-yl-(quinazolin-4-yl)methanone compounds” (Rexahn Pharmaceuticals, Inc., priority 2013, dated 2017):
Read-outs that look alike come from different tables or passages of the source.

Legend:
Format in all cases: cell-based, Human
MDA-MB-231 (breast) = assay: SRB growth inhibition assay, MDA-MB-231; conditions: read-out: Inhibition of cell growth (IC50, μM) MDA-MB-231
Text: (§1) Cancer cells used in this study to determine the effect of tetrahydroisoquinolin-2-yl-(quinazolin-4-yl)methanone compounds were obtained from the following sources: Human OVCAR-3 (ovary), SK-MEL-28 (melanoma), MDA-MB-231 (breast), HeLa (cervix), PC3 (prostate), HepG2 (liver), A549 (lung), Caki-1 (kidney), HCT116 (colon) and PANC-1 (pancreas) from the American Type Culture Collection (ATCC) (Manassas, Va.); U251 (brain) from Riken (Japan); MKN-45 (stomach) from DSMZ (Germany). All cell lines except MDA-MB-231, HCT116, Caki-1 and PANC-1 were grown in RPMI1640 medium (Invitrogen, Carlsbad, Calif.) supplemented with 10% fetal bovine serum (“FBS”), 1 mM sodium pyruvate, 10 mM HEPES and 100 U/ml penicillin and 100 μg/ml streptomycin (“P/S”). MDA-MB-231, HCT116, Caki-1 and PANC-1 cells were maintained in Dulbecco's modified Eagle's medium (“DMEM”, Invitrogen) supplemented with 10% FBS, P/S, 10 mM HEPES and 2 mM L-glutamine. All cells were incubated at 37° C. under humidified 5% CO2.
(§2) The growth inhibition of the tetrahydroisoquinolin-2-yl-(quinazolin-4-yl)methanone compounds against a variety of human tumor cells was evaluated to study the relative importance of particular substituent groups on the compounds. The tetrahydroisoquinolin-2-yl-(quinazolin-4-yl)methanone compounds, prepared as described above, were tested with DMSO as a control.
(§3) The growth inhibition assay of representative tetrahydroisoquinolin-2-yl-(quinazolin-4-yl)methanone derivatives against human tumor cell lines was performed using the Sulforhodamine B (“SRB”) method (Skehan et al., J. National Cancer Institute, 82: 1107-1112 (1990)). Briefly, exponentially growing tumor cells were seeded into a 96-well plate at a density of 2-3×10^3 cells/well and treated with tetrahydroisoquinolin-2-yl-(quinazolin-4-yl)methanone compounds the next day. Triplicate wells were used for each treatment. The cells were incubated with the various compounds for 96 hours at 37° C. in a humidified 5% CO2 atmosphere. After 96-hour incubation, cells were fixed with 10% trichloroacetic acid (“TCA”), incubated for 1 hour at 4° C., and washed 3 times with tap water. Subsequently, cells were stained with 0.4% sulforhodamine B in 1% acetic acid for 30 minutes, washed 4 times with 1% acetic acid, and air-dried again After 5 minutes agitation in 10 mM Tris solution, the absorbance of each well was measured at 530 nm using Benchmark Plus Microplate reader (Bio-Rad Laboratories, Hercules, Calif.).
(§4) To translate the OD530 values into the number of live cells in each well, the OD530 values were compared to those on standard OD530-versus-cell number curves generated for each cell line. The percent survival was calculated using the formula: % Survival=live cell number [test]/live cell number [control]×100
(§5) The IC50 values were calculated by non-linear regression analysis.
(§6) The compounds were screened against at […] including PANC-1, MDA-MB-231, HCT116 and Caki-1, at approximately 1 μM concentration. The inhibition of cell growth (IC50, μM) of some tetrahydroisoquinolin-2-yl-(quinazolin-4-yl)methanone compounds are shown in Table 2.

PANC-1 (pancreas) = assay: SRB growth inhibition assay, PANC-1; conditions: read-out: Inhibition of cell growth (IC50, μM) Panc-1
Text: as §1, §2, §3, §4, §5, §6

HCT116 (colon) = assay: SRB growth inhibition assay, HCT116; conditions: read-out: Inhibition of cell growth (IC50, μM) HCT116
Text: as §1, §2, §3, §4, §5, §6

Caki-1 (kidney) = assay: SRB growth inhibition assay, Caki-1; conditions: read-out: Inhibition of cell growth (IC50, μM) Caki-1
Text: as §1, §2, §3, §4, §5, §6

[1] = Homo sapiens, MDA-MB-231, 96 hours incubation
[2] = Homo sapiens, PANC-1, 96 hours incubation
[3] = Homo sapiens, HCT-116, 96 hours incubation
[4] = Homo sapiens, CAKI-1, 96 hours incubation

Row | IC50 (MDA-MB-231 (breast); 96 hours incubation) [µM] | IC50 (PANC-1 (pancreas); 96 hours incubation) [µM] | IC50 (HCT116 (colon); 96 hours incubation) [µM] | IC50 (MDA-MB-231 (breast); [1]) [µM] | IC50 (PANC-1 (pancreas); [2]) [µM] | IC50 (HCT116 (colon); [3]) [µM] | Molecule | IC50 (Caki-1 (kidney); 96 hours incubation) [µM] | IC50 (Caki-1 (kidney); [4]) [µM]
1 | 0.58 | 0.51 | 0.54 |  |  |  | 2-[[2-(3-fluorophenyl)phenyl)quinazolin-4-yl]carbonyl]-5-hydroxy-6-methyl-1,2,3,4-tetrahydroisoquinoline [Compound 46] | 0.52 | 
2 |  |  |  | 3.44 |  | 1.65 | COc1ccc2c(c1OC)CCN(C(=O)c1nc(-c3cccc(C(F)(F)F)c3)nc3ccccc13)C2 [Compound 54, 2-[[2-(3-(trifluoromethyl)phenyl)quinazolin-4-yl]carbonyl]-5,6-dimethoxy-1,2,3,4-tetrahydroisoquinoline] |  | 
3 |  |  |  | 0.11 | 0.2 | 0.16 | COc1ccc2c(c1O)CCN(C(=O)c1nc(-c3ccc([N+](=O)[O-])cc3)nc3ccccc13)C2 [Compound 95, 2-[[2-(4-nitrophenyl)quinazolin-4-yl]carbonyl]-5-hydroxy-6-methoxy-1,2,3,4-tetrahydroisoquinoline] |  | 
4 |  |  |  | 0.23 | 0.28 | 0.36 | COc1ccc2c(c1O)CCN(C(=O)c1nc(-c3ccc(N)cc3)nc3ccccc13)C2 [Compound 96, 2-[[2-(4-aminophenyl)quinazolin-4-yl]carbonyl]-5-hydroxy-6-methoxy-1,2,3,4-tetrahydroisoquinoline] |  | 

Second part, the molecule before the results:

Row | Molecule | IC50 (MDA-MB-231 (breast); 96 hours incubation) [µM] | IC50 (PANC-1 (pancreas); 96 hours incubation) [µM] | IC50 (HCT116 (colon); 96 hours incubation) [µM] | IC50 (MDA-MB-231 (breast); [1]) [µM] | IC50 (PANC-1 (pancreas); [2]) [µM] | IC50 (HCT116 (colon); [3]) [µM] | IC50 (Caki-1 (kidney); 96 hours incubation) [µM] | IC50 (Caki-1 (kidney); [4]) [µM]
5 | COc1ccc2c(c1OC)CCN(C(=O)c1nc(-c3ccc(F)cc3)nc3ccccc13)C2 [Compound 3, 2-[[2-(4-fluorophenyl)quinazolin-4-yl]carbonyl]-5,6-dimethoxy-1,2,3,4-tetrahydroisoquinoline] |  |  |  | 1.2 | 1.45 | 1.39 |  | 1.1
6 | Cc1ccc2c(c1O)CCN(C(=O)c1nc(-c3ccc(F)cc3)nc3ccccc13)C2 [Compound 5, 2-[[2-(4-fluorophenyl)quinazolin-4-yl]carbonyl]-5-hydroxy-6-methyl-1,2,3,4-tetrahydroisoquinoline] |  |  |  | 0.38 | 0.4 | 0.47 |  | 0.36
7 | COc1ccc2c(c1O)CCN(C(=O)c1nc(-c3ccc(C)cc3)nc3ccccc13)C2 [Compound 12, 2-[[2-(4-methylphenyl)quinazolin-4-yl]carbonyl]-5-hydroxy-6-methoxy-1,2,3,4-tetrahydroisoquinoline] |  |  |  | 0.23 | 0.18 | 0.29 |  | 0.2
8 | Cc1ccc(-c2nc(C(=O)N3CCc4c(ccc(C)c4O)C3)c3ccccc3n2)cc1 [Compound 16, 2-[[2-(4-methylphenyl)quinazolin-4-yl]carbonyl]-5-hydroxy-6-methyl-1,2,3,4-tetrahydroisoquinoline] |  |  |  | 1.5 | 1.72 | 2.05 |  | 1.61
9 | COc1ccc2c(c1OC)CCN(C(=O)c1nc(-c3ccccc3)nc3ccccc13)C2 [Compound 19, 2-[[2-phenylquinazolin-4-yl]carbonyl]-5,6-dimethoxy-1,2,3,4-tetrahydroisoquinoline] |  |  |  | 0.84 | 1.06 | 1.08 |  | 0.85
10 | Cc1ccc2c(c1O)CCN(C(=O)c1nc(-c3ccccc3)nc3ccccc13)C2 [Compound 21, 2-[[2-phenylquinazolin-4-yl]carbonyl]-5-hydroxy-6-methyl-1,2,3,4-tetrahydroisoquinoline] |  |  |  | 0.27 | 0.22 | 0.34 |  | 0.23
11 | COc1ccc(-c2nc(C(=O)N3CCc4c(ccc(OC)c4OC)C3)c3ccccc3n2)cc1 [Compound 24, 2-[[2-(4-methoxylphenyl)quinazolin-4-yl]carbonyl]-5,6-dimethoxy-1,2,3,4-tetrahydroisoquinoline] |  |  |  | 0.41 | 0.46 | 0.49 |  | 0.38
12 | COc1ccc(-c2nc(C(=O)N3CCc4c(ccc(N(C)C)c4O)C3)c3ccccc3n2)cc1 [Compound 25, 2-[[2-(4-methoxylphenyl)quinazolin-4-yl]carbonyl]-5-hydroxy-6-dimethylamino-1,2,3,4-tetrahydroisoquinoline] |  |  |  | 2.53 | 1.77 |  |  | 
